Reference: patent US12077503B2, “Substituted cyclic amides and their use as herbicides” (FMC CORPORATION, priority 2015, dated 2024)
Where two headings read alike, the source gives them in different places.

What was measured:
Assay type in all cases: in vivo
[1] = system: Kochia (Kochia scoparia); experiment: Test A preemergence; conditions: Bassia scoparia, pre-emergence, 240 h, preemergence, 0 to 100 scale where 0 is no effect and 100 is complete control, read-out: Kochia plant response rating; for pest or weed control at 500 g/ha: 500 g ai/ha
Method in brief: (§1)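 Compounds were formulated in a non-phytotoxic solvent mixture with surfactant and applied as a preemergence directed soil spray after seeding, or sprayed postemergence over plants 2 to 10 cm tall at the one- to two-leaf stage. Evaluation after about 10 d compared treated with untreated controls, using a scale from 0 (no effect) to 100 (complete control).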

[2] = system: giant foxtail (Setaria faberii); experiment: Test A preemergence; conditions: Setaria faberi, pre-emergence, 240 h, preemergence, 0 to 100 scale where 0 is no effect and 100 is complete control, read-out: Foxtail, Giant plant response rating; for pest or weed control at 125 g/ha: 125 g ai/ha, visual injury rating, approximately 10 d; for pest or weed control at 500 g/ha: 500 g ai/ha
Method in brief: as §1

[3] = system: pigweed (Amaranthus retroflexus); experiment: Test A preemergence; conditions: Amaranthus retroflexus, pre-emergence, 240 h, preemergence, 0 to 100 scale where 0 is no effect and 100 is complete control, read-out: Pigweed plant response rating; for pest or weed control at 125 g/ha: 125 g ai/ha, visual injury rating, approximately 10 d; for pest or weed control at 500 g/ha: 500 g ai/ha
[4] = system: ragweed (common ragweed, Ambrosia elatior); experiment: Test A preemergence; conditions: Ambrosia artemisiifolia, pre-emergence, 240 h, preemergence, 0 to 100 scale where 0 is no effect and 100 is complete control, read-out: Ragweed plant response rating; for pest or weed control at 125 g/ha: 125 g ai/ha, visual injury rating, approximately 10 d; for pest or weed control at 500 g/ha: 500 g ai/ha
Method in brief: as §1

[5] = system: ryegrass, Italian (Italian ryegrass, Lolium multiflorum); experiment: Test A preemergence; conditions: Lolium multiflorum, pre-emergence, 240 h, preemergence, 0 to 100 scale where 0 is no effect and 100 is complete control, read-out: Ryegrass, Italian plant response rating; for pest or weed control at 125 g/ha: 125 g ai/ha, visual injury rating, approximately 10 d; for pest or weed control at 500 g/ha: 500 g ai/ha
Method in brief: as §1

[6] = system: Galium (catchweed bedstraw, Galium aparine); experiment: Test A postemergence; conditions: Galium, post-emergence, 240 h; for pest or weed control at 125 g/ha: 125 g ai/ha, visual injury vs untreated controls after approx. 10 d, 0 = no effect, 100 = complete control, read-out: Galium plant response rating (0 to 100 scale); for pest or weed control at 500 g/ha: 500 g ai/ha
Method in brief: as §1

[7] = system: Kochia (Kochia scoparia); experiment: Test A postemergence; conditions: Bassia scoparia, post-emergence, 240 h; for pest or weed control at 125 g/ha: 125 g ai/ha, visual injury vs untreated controls after approx. 10 d, 0 = no effect, 100 = complete control, read-out: Kochia plant response rating (0 to 100 scale); for pest or weed control at 500 g/ha: 500 g ai/ha
Method in brief: as §1

[8] = system: barnyardgrass (Echinochloa crus-galli); experiment: Test A postemergence; conditions: Echinochloa crus-galli, post-emergence, 240 h; for pest or weed control at 125 g/ha: 125 g ai/ha, visual injury vs untreated controls after approx. 10 d, 0 = no effect, 100 = complete control, read-out: Barnyardgrass plant response rating (0 to 100 scale); for pest or weed control at 500 g/ha: 500 g ai/ha
Method in brief: as §1

[9] = system: blackgrass (Alopecurus myosuroides); experiment: Test A postemergence; conditions: Alopecurus myosuroides, post-emergence, 240 h; for pest or weed control at 125 g/ha: 125 g ai/ha, visual injury vs untreated controls after approx. 10 d, 0 = no effect, 100 = complete control, read-out: Blackgrass plant response rating (0 to 100 scale); for pest or weed control at 500 g/ha: 500 g ai/ha
Method in brief: as §1

[10] = system: corn (Zea mays); experiment: Test A postemergence; conditions: Zea mays, post-emergence, 240 h; for plant injury at 125 g/ha: 125 g ai/ha, visual injury vs untreated controls after approx. 10 d, 0 = no effect, 100 = complete control, read-out: Corn plant response rating (0 to 100 scale)
Method in brief: as §1

[11] = system: giant foxtail (Setaria faberii); experiment: Test A postemergence; conditions: Setaria faberi, post-emergence, 240 h; for pest or weed control at 125 g/ha: 125 g ai/ha, visual injury vs untreated controls after approx. 10 d, 0 = no effect, 100 = complete control, read-out: Foxtail, Giant plant response rating (0 to 100 scale); for pest or weed control at 500 g/ha: 500 g ai/ha
Method in brief: as §1

[12] = system: pigweed (Amaranthus retroflexus); experiment: Test A postemergence; conditions: Amaranthus retroflexus, post-emergence, 240 h; for pest or weed control at 125 g/ha: 125 g ai/ha, visual injury vs untreated controls after approx. 10 d, 0 = no effect, 100 = complete control, read-out: Pigweed plant response rating (0 to 100 scale); for pest or weed control at 500 g/ha: 500 g ai/ha
Method in brief: as §1

[13] = system: ragweed (common ragweed, Ambrosia elatior); experiment: Test A postemergence; conditions: Ambrosia artemisiifolia, post-emergence, 240 h; for pest or weed control at 125 g/ha: 125 g ai/ha, visual injury vs untreated controls after approx. 10 d, 0 = no effect, 100 = complete control, read-out: Ragweed plant response rating (0 to 100 scale); for pest or weed control at 500 g/ha: 500 g ai/ha
Method in brief: as §1

[14] = system: ryegrass, Italian (Italian ryegrass, Lolium multiflorum); experiment: Test A postemergence; conditions: Lolium multiflorum, post-emergence, 240 h; for pest or weed control at 125 g/ha: 125 g ai/ha, visual injury vs untreated controls after approx. 10 d, 0 = no effect, 100 = complete control, read-out: Ryegrass, Italian plant response rating (0 to 100 scale); for pest or weed control at 500 g/ha: 500 g ai/ha
Method in brief: as §1

[15] = system: wheat (Triticum aestivum); experiment: Test A postemergence; conditions: Triticum aestivum, post-emergence, 240 h; for plant injury at 125 g/ha: 125 g ai/ha, visual injury vs untreated controls after approx. 10 d, 0 = no effect, 100 = complete control, read-out: Wheat plant response rating (0 to 100 scale); for plant injury at 500 g/ha: 500 g ai/ha
Method in brief: as §1

SMILES | pest or weed control at 500 g/ha [1] [%] | pest or weed control at 125 g/ha [2] [%] | pest or weed control at 500 g/ha [2] [%] | pest or weed control at 125 g/ha [3] [%] | pest or weed control at 500 g/ha [3] [%] | pest or weed control at 125 g/ha [4] [%] | pest or weed control at 500 g/ha [4] [%] | pest or weed control at 125 g/ha [5] [%] | pest or weed control at 500 g/ha [5] [%] | pest or weed control at 125 g/ha ([6]; postemergence) [%] | pest or weed control at 125 g/ha ([7]; postemergence) [%] | pest or weed control at 125 g/ha ([8]; postemergence) [%] | pest or weed control at 125 g/ha ([9]; postemergence) [%] | plant injury at 125 g/ha ([10]; postemergence) [%] | pest or weed control at 125 g/ha ([11]; postemergence) [%] | pest or weed control at 125 g/ha ([12]; postemergence) [%] | pest or weed control at 125 g/ha ([13]; postemergence) [%] | pest or weed control at 125 g/ha ([14]; postemergence) [%] | plant injury at 125 g/ha ([15]; postemergence) [%] | further results
CSc1ccccc1NC(=O)[C@H]1C(=O)N(C)C[C@@H]1c1cccc(C(F)(F)F)c1 [Compound 1249] | 90 | 100 | 100 | 80 | 90 | 30 | 70 | 30 | 100 | 50 | 40 | 100 | 40 | 70 | 80 | 30 | 0 | 30 | 50 | pest or weed control at 500 g/ha ([6]; Postemergence, visual injury, 0 to 100 scale (0 no effect, 100 complete control), approx. 10 d, read-out: Plant response rating, Galium): 50%; pest or weed control at 500 g/ha ([7]; Postemergence, visual injury, 0 to 100 scale (0 no effect, 100 complete control), approx. 10 d, read-out: Plant response rating, Kochia): 70%; pest or weed control at 500 g/ha ([8]; Postemergence, visual injury, 0 to 100 scale (0 no effect, 100 complete control), approx. 10 d, read-out: Plant response rating, Barnyardgrass): 100%; pest or weed control at 500 g/ha ([9]; Postemergence, visual injury, 0 to 100 scale (0 no effect, 100 complete control), approx. 10 d, read-out: Plant response rating, Blackgrass): 50%; Corn plant response rating (crop injury, 0 = no effect, 100 = complete kill) at 500 g/ha ([10]; Postemergence, 500 g ai/ha, visual injury, 0 to 100 scale (0 no effect, 100 complete control), approx. 10 d): 90%; pest or weed control at 500 g/ha ([11]; Postemergence, visual injury, 0 to 100 scale (0 no effect, 100 complete control), approx. 10 d, read-out: Plant response rating, Foxtail, Giant): 80%; pest or weed control at 500 g/ha ([12]; Postemergence, visual injury, 0 to 100 scale (0 no effect, 100 complete control), approx. 10 d, read-out: Plant response rating, Pigweed): 80%; pest or weed control at 500 g/ha ([13]; Postemergence, visual injury, 0 to 100 scale (0 no effect, 100 complete control), approx. 10 d, read-out: Plant response rating, Ragweed): 60%; pest or weed control at 500 g/ha ([14]; Postemergence, visual injury, 0 to 100 scale (0 no effect, 100 complete control), approx. 10 d, read-out: Plant response rating, Ryegrass, Italian): 70%; plant injury at 500 g/ha ([15]; Postemergence, visual injury, 0 to 100 scale (0 no effect, 100 complete control), approx. 10 d, read-out: Plant response rating, Wheat): 70%
CN1C[C@H](c2cc(F)cc(C(F)(F)F)c2)[C@@H](C(=O)Nc2cccc(F)c2F)C1=O [Compound 1214] | 60 | 90 | 90 | 60 | 70 | 0 | 70 | 60 | 90 | 60 | 60 | 90 | 80 | 80 | 90 | 30 | 0 | 60 | 70 | pest or weed control at 125 g/ha ([1]; 125 g ai/ha, visual injury rating, approximately 10 d): 50%; pest or weed control at 500 g/ha ([6]; postemergence, 0 to 100 scale, 0 is no effect, 100 is complete control, read-out: Galium plant response rating): 60%; pest or weed control at 500 g/ha ([7]; postemergence, 0 to 100 scale, 0 is no effect, 100 is complete control, read-out: Kochia plant response rating): 80%; pest or weed control at 500 g/ha ([8]; postemergence, 0 to 100 scale, 0 is no effect, 100 is complete control, read-out: Barnyardgrass plant response rating): 90%; pest or weed control at 500 g/ha ([9]; postemergence, 0 to 100 scale, 0 is no effect, 100 is complete control, read-out: Blackgrass plant response rating): 80%; plant injury at 500 g/ha ([10]; 500 g ai/ha, postemergence, 0 to 100 scale, 0 is no effect, 100 is complete control, read-out: Corn plant response rating): 90%; pest or weed control at 500 g/ha ([11]; postemergence, 0 to 100 scale, 0 is no effect, 100 is complete control, read-out: Foxtail, Giant plant response rating): 90%; pest or weed control at 500 g/ha ([12]; postemergence, 0 to 100 scale, 0 is no effect, 100 is complete control, read-out: Pigweed plant response rating): 60%; pest or weed control at 500 g/ha ([13]; postemergence, 0 to 100 scale, 0 is no effect, 100 is complete control, read-out: Ragweed plant response rating): 30%; pest or weed control at 500 g/ha ([14]; postemergence, 0 to 100 scale, 0 is no effect, 100 is complete control, read-out: Ryegrass, Italian plant response rating): 80%; plant injury at 500 g/ha ([15]; postemergence, 0 to 100 scale, 0 is no effect, 100 is complete control, read-out: Wheat plant response rating): 80%
